Reference: ChEMBL document CHEMBL5728678, “Heteroaryl compounds as BTK inhibitors and uses thereof” (2021)

Biological target: Tyrosine-protein kinase BTK (Homo sapiens, UniProt Q06187)
Assay: Microfluidic Off-Chip Mobility Shift Assay Protocol for Potency Assessment Against BTK Enzyme: Briefly, 2.5× stocks of full-length human BTK (08-080) from CarnaBio USA, Inc., Natick, Mass., 1.6×ATP and appropriate kinKDR peptide substrate (FITC-AHA-[…]-NH2; developed in-house) were prepared in kinase reaction buffer consisting of 25 mM MgCl2, 0.015% Brij-35 (30%), 100 mM HEPES, pH 7.5, and 10 mM DTT. 5 uL of enzyme buffer and 7.5 uL of ATP/kinKDR peptide substrate mix were added to Matrix (#115304) 384-well, sterile, polypropylene plates (Thermo Fisher Scientific, Hudson, N.H.) with 125 nL of serially diluted compounds prepared in 100% DMSO, and incubated for 90 min. at 27° C. Following the incubation period, reactions were stopped by adding 60 uL stop buffer consisting of 100 mM HEPES, pH 7.5, 0.015% Brij-35 (30%), 0.277% Coating Reagent #3 (Caliper Life Sciences, Mountain View, Calif.), 5% DMSO. Stopped reactions were monitored at −2 PSI, −3000 V/−700 V in a LabChip 3000 plate reader from Caliper Life Sciences, a PerkinElmer Company (Hopkinton, Mass.), and the activity was measured by off-chip mobility shift assay measuring the charge/mass difference between substrate and product resulting from peptide phosphorilation. IC50 and efficacy were determined by plotting log [Inhibitor] vs. % Activity in GeneData Screener (Basel. Switzerland).

Tyrosine-protein kinase BTK (Homo sapiens, UniProt Q06187), sequence (Q06187 whole entry): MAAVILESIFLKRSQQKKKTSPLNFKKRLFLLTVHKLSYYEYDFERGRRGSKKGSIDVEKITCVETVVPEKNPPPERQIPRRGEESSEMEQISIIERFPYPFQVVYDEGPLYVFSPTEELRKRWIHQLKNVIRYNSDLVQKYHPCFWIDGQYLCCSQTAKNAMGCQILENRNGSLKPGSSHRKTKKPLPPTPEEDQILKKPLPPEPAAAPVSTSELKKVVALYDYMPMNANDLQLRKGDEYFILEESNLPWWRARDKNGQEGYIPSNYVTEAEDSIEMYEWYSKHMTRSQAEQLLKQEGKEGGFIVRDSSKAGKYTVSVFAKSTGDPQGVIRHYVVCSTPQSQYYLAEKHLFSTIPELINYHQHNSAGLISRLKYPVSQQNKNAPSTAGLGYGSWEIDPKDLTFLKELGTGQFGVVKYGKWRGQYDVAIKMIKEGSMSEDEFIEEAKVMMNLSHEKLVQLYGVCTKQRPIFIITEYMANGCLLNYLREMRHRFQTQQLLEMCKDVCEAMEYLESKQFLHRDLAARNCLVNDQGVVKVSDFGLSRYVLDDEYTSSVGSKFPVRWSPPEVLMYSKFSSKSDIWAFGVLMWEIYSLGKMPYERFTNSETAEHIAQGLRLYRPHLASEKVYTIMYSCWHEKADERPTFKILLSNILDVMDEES

Compound	IC50 [nM]
CC(C)(C)c1noc(C(=O)NCc2ccc(-c3ccnc4[nH]c(C5=CCNCC5)nc34)cc2F)n1	< 100
CC(C)(C)c1noc(C(=O)NCc2ccc(-c3ccnc4[nH]c([C@@H]5C[C@H]5c5ccccc5)nc34)cc2F)n1	> 5000

The next lines start with the values.

IC50 [nM]	Compound
< 100	CCn1cc(-c2nc3c(-c4ccc(CNC(=O)c5cc(C(C)(C)C)on5)c(F)c4)ccnc3[nH]2)cn1
> 5000	Cn1cc(-c2nc3c(-c4ccc(CNc5nccc6c5OCCN6C(=O)OC(C)(C)C)c(F)c4)ccnc3[nH]2)cn1

Biological target: Tyrosine-protein kinase BTK (Homo sapiens, UniProt Q06187, C481S)
Sequence (Q06187 2-659 C481S limits assumed): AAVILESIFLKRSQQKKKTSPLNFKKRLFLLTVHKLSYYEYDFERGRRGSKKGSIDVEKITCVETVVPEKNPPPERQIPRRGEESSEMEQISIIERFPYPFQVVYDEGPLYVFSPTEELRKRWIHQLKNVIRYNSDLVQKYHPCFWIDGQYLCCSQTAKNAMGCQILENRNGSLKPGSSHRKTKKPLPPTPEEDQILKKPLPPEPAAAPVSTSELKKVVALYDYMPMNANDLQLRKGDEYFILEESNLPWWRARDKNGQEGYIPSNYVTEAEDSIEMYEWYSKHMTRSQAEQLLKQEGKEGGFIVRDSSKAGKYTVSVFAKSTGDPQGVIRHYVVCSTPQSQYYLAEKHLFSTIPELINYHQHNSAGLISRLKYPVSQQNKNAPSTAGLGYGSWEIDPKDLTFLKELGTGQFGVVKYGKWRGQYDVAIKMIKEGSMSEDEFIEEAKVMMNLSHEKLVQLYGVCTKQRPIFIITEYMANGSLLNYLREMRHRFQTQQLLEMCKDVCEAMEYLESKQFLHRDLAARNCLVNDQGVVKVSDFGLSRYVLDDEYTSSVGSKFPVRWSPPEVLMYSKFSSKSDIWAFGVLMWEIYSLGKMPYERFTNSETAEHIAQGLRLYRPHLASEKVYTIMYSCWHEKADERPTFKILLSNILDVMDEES
Assay: Microfluidic Off-Chip Mobility Shift Assay Protocol for Potency Assessment Against BTK C481S Enzyme: The protocol below describes a microfluidic, off-chip mobility shift kinase assay to measure inherent potency of compounds against BTK C481S enzyme. The mechanics of the assay platform are described by the vendor (PerkinElmer, Hopkinton, Mass.) on their website at the following URL: http://caliperls.com.Briefly, 2.5× stocks of His-TEV-hsBTK(328-659)(C481S) from the Merck Serono Protein Purification Laboratory in Darmstadt, Germany (PCS, Q27/234), 1.6×ATP and appropriate KinKDR peptide substrate (FITC-AHA-[…]-NH2; Tufts University Core Facility custom synthesis) were prepared in kinase reaction buffer consisting of 25 mM MgCl2, 0.015% Brij-35 (30%), 100 mM HEPES, pH 7.5, and 10 mM DTT.5 uL of enzyme buffer and 7.5 uL of ATP/KinKDR peptide substrate mix were added to Matrix (#4315) 384-well, sterile, flat-bottom polypropylene plates (Thermo Fisher Scientific, Hudson, N.H.) with 125 nL of serially diluted compounds prepared in 100% DMSO, and incubated for 90 min. at 25° C. Following the incubation period, reactions were terminated by adding 65 uL quench buffer consisting of 100 mM HEPES, pH 7.5, 0.015% Brij-35 (30%), 0.277% Coating Reagent #3 (PerkinElmer, Mountain View, Calif.), 5% DMSO. Terminated reactions were monitored at −2 PSI, −3000 V/−700 Volts in a LabChip 3000 plate reader from Caliper Life Sciences, a PerkinElmer Company (Hopkinton, Mass.), and the activity was quantified by laser-induced fluorescence measuring the charge/mass difference between substrate and product resulting from peptide phosphorylation. IC50 and efficacy were determined by plotting log [Inhibitor] vs. % Activity in GeneData Screener (Basel, Switzerland).

IC50 [nM]	Compound
< 100	Cn1cc(-c2nc3c(-c4cccc(CNC(=O)c5noc(C(C)(C)C)n5)c4)ccnc3[nH]2)cn1
< 100	CC(C)(C)c1nc(C(=O)NCc2ccc(-c3ccnc4[nH]c(-c5cnn(C6COC6)c5)nc34)cc2F)no1
< 100	CC(C)(C)c1nc(C(=O)NCc2ccc(-c3ccnc4[nH]c(-c5cnn(C6CCOCC6)c5)nc34)cc2F)no1
